Experimental data from publication PMC9989278, “Characterization of substrates and inhibitors of the human heterodimeric transporter 4F2hc-LAT1 using purified protein and the scintillation proximity radioligand binding assay” (Frontiers in Physiology, 2023).
Where two headings read alike, the source gives them in different places. Values belong to the compound of their own block, whether it stands above or below them.

Columns and labels:
[1] = molecular target: T1, human 4F2hc-LAT1 (Homo sapiens, UniProt Q01650); experiment: Scintillation proximity radioligand binding assay (SPA), [3H]L-leucine competition on purified protein; conditions: for Binding of [3H]L-Leucine (%), residual radioligand binding: Figure 1, mean of three experiments; for Binding of [3H]L-Leucine (%), residual radioligand binding / Binding of [3H]L-Leucine (%), residual radioligand binding (RRB) / binding / inhibition of [3H]L-leucine binding to 4F2hc-LAT1, in words: competitor 250 µM; for Binding of [3H]L-Leucine (%), residual radioligand binding / Binding of [3H]L-Leucine (%), residual radioligand binding (RRB): normalized to control without competitor; for Ki: heterologous competition with [3H]L-leucine, read-out: Ki
T1 construct: Strep-tag (N); made in house; host or cells: Pichia pastoris strain KM71H
T1 sequence (Q01650 whole entry): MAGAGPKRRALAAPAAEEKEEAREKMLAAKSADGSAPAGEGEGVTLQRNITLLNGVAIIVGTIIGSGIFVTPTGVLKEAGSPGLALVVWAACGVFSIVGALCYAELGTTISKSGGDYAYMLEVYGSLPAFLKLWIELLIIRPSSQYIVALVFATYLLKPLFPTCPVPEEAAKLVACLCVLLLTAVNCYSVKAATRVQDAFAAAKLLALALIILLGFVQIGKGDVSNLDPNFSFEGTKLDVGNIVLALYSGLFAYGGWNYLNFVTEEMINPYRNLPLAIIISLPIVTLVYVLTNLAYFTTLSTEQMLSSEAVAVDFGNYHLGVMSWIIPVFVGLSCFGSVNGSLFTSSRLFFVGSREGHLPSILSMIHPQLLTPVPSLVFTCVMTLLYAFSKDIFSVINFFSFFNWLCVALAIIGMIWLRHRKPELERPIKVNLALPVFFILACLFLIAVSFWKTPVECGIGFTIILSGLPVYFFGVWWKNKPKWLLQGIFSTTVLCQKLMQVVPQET
T1 sequence (P08195 102-630 partner): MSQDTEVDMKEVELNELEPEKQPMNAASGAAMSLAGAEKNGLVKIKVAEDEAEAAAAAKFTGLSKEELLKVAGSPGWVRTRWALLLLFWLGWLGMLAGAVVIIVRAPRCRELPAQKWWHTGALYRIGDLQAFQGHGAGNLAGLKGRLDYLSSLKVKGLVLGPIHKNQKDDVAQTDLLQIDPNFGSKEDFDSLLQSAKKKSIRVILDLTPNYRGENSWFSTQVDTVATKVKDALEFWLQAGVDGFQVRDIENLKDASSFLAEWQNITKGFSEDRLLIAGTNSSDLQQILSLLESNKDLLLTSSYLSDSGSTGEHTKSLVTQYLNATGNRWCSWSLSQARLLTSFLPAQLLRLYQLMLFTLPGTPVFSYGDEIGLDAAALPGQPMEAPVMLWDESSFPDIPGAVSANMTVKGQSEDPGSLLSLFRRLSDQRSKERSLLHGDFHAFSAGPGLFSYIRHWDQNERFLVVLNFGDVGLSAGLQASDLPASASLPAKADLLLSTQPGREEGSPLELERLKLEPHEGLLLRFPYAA
Method: Purified, GDN-solubilized human 4F2hc-LAT1 was attached via the His-tag to polyvinyltolune (PVT) copper His-tag SPA beads (Perkin Elmer) and the protein-bound [^3H]L-leucine quantified using a scintillation counter (a detailed description of SPA with 4F2hc-LAT1 is given in the methodological publication by ([Kantipudi et al., 2021])). Briefly, experiments were conducted in 96-well plates and per well a reaction volume of 50 µL containing 250 µg PVT-SPA-beads, 1.75 µg 4F2hc-LAT1 protein, 2.5 μM L-leucine spiked with 0.5 µCi [^3H]L-leucine (ARC/Anawa, 100 Ci/mmol, 1 mCi/ml) plus a condition-specific substance. All components were dissolved in SPA-Buffer (100 mM BTP pH 8, 150 mM NaCl, 10% (v/v) glycerol, 0.5% (w/v) GDN). For some condition-specific substances (i.e., the thyroid hormones), 20 min sonication in a water bath at 4°C was necessary to dissolve them at 10× concentration in SPA-Buffer. Per reaction, 5 µL of a 10× stock solution of the condition-specific substance was placed in a well and diluted with 45 µL of a master mix containing the remaining components. For determining the substrate specificities (Figure 1), the twenty proteogenic L-amino acids and D-leucine were used as competitors at a final concentration of 250 µM. For determining the K D of L-leucine (Figure 2A) and K i of L-histidine (Figure 2B), homologous (L-leucine) and heterologous (L-histidine) substrate competition was applied at concentrations ranging from 0.01 to 1600 µM. […] The binding specificities of structural analogues of L-leucine (Figure 3) and L-histidine (Figure 4) were tested at a final competitor concentration of 250 µM. […] To avoid minor unspecific binding of radioactive L-leucine to the beads, the master mix was created in a specific procedure: SPA-beads were first mixed with the unlabeled L-leucine and shaken for 2 h at 4°C before adding the remaining components (protein last). For background subtraction in the bar graph experiments, a no-protein control was included using protein-free master mix (i.e., containing buffer instead of protein solution). The plate was shortly mixed by shaking and incubated at 4°C for ∼18 h before the signals were counted using a microplate scintillation counter (Trilux Microbeta, Perkin Elmer). […] Three experiments with protein from at least two different purifications were performed, each at least in triplicates.
Data were analyzed with Prism 6 (GraphPad Software). […] Each experiment was done with sample number of at least three (triplicate). Data of three independent experiments were merged by adding the normalized data to a common data set, which was used for curve fitting. For data analysis of the bar graphs, the signal of the no-protein control was subtracted from the transporter signal to obtain the net binding signal.

[2] = molecular target: T1, human 4F2hc-LAT1; conditions: ref Kantipudi et al., 2020, cited from earlier work
[3] = tested on: recombinant human LAT1; parameters: method as in Napolitano et al., 2015; conditions: proteoliposomes, ref Napolitano et al., 2015, cited from earlier work
[4] = Figure 4, L-histidine analogues

Binding of [3H]L-Leucine (%), residual radioligand binding [1]: 1%
Binding of [3H]L-Leucine (%), residual radioligand binding (RRB) ([1]; Figure 3, L-leucine analogues): 1%
binding / inhibition of [3H]L-leucine binding to 4F2hc-LAT1, in words [1]: inhibited strongly
Kd ([1]; homologous competition with [3H]L-leucine, Figure 2A): 26 µM
Structure (SMILES): CC(C)C[C@H](N)C(=O)O [L-Leucine, L-leucine]
Km ([2]; P. pastoris cell uptake assay): 25 µM

Binding of [3H]L-Leucine (%), residual radioligand binding [1]: 26%
Binding of [3H]L-Leucine (%), residual radioligand binding ([1]; listed as L-tyrosine): 19-29%
Structure (SMILES): N[C@@H](Cc1ccc(O)cc1)C(=O)O [Tyr, L-tyrosine]

Binding of [3H]L-Leucine (%), residual radioligand binding [1]: 2%
Binding of [3H]L-Leucine (%), residual radioligand binding (RRB) [1, 4]: 1%
binding / inhibition of [3H]L-leucine binding to 4F2hc-LAT1, in words [1]: inhibited strongly
Ki ([1]; Figure 2B, C, E, F): 28 µM
Structure (SMILES): N[C@@H](Cc1c[nH]cn1)C(=O)O [L-Histidine, L-histidine]
IC50 ([2]; [3H]L-leucine uptake inhibition, P. pastoris cells): 23 µM
Km ([3]; external side, read-out: external Km): 24.6 µM
Km ([3]; internal side, read-out: internal Km): 2800 µM

Binding of [3H]L-Leucine (%), residual radioligand binding [1]: 45%
Structure (SMILES): NCCCC[C@H](N)C(=O)O [Lys]

Binding of [3H]L-Leucine (%), residual radioligand binding (RRB) ([1]; Figure 3, L-leucine analogues): 106%
binding / inhibition of [3H]L-leucine binding to 4F2hc-LAT1, in words [1]: no significant binding
Structure (SMILES): COC(=O)[C@@H](N)CC(C)C [L-Leucine-Methyl Ester, L-leucine-methyl ester]

Binding of [3H]L-Leucine (%), residual radioligand binding [1]: 35%
Structure (SMILES): N[C@@H](CS)C(=O)O [Cys]

Structure (SMILES): C[C@@H](O)[C@H](N)C(=O)O [Thr]
Binding of [3H]L-Leucine (%), residual radioligand binding [1]: 34%

Binding of [3H]L-Leucine (%), residual radioligand binding (RRB) [1, 4]: 64%
Binding of [3H]L-Leucine (%), residual radioligand binding (RRB) ([1]; Figure 4, L-histidine analogues, listed as 3-methyl-L-histidine): 59–64%
Structure (SMILES): Cn1cncc1C[C@H](N)C(=O)O [3-Methyl L-Histidine, 3-methyl-L-histidine]

Binding of [3H]L-Leucine (%), residual radioligand binding (RRB) ([1]; Figure 3, L-leucine analogues): 43%
Binding of [3H]L-Leucine (%), residual radioligand binding (RRB) ([1]; Figure 3, L-leucine analogues, listed as L-neopentyl glycine): 32–43%
Structure (SMILES): CC(C)(C)C[C@H](N)C(=O)O [L-Neopentylglycine, L-neopentyl glycine]

Binding of [3H]L-Leucine (%), residual radioligand binding (RRB) ([1]; Figure 3, L-leucine analogues): 103%
binding / inhibition of [3H]L-leucine binding to 4F2hc-LAT1, in words [1]: no significant binding
Structure (SMILES): CN[C@@H](CC(C)C)C(=O)O [N-Methyl-L-Leucine, N-methyl-L-leucine]

Binding of [3H]L-Leucine (%), residual radioligand binding [1]: 45%
Structure (SMILES): N[C@@H](CC(=O)O)C(=O)O [Asp]

Binding of [3H]L-Leucine (%), residual radioligand binding (RRB) ([1]; Figure 3, L-leucine analogues): 45%
Binding of [3H]L-Leucine (%), residual radioligand binding (RRB) ([1]; Figure 3, L-leucine analogues, listed as L-2-aminobutyric acid): 37–45%
Structure (SMILES): CC[C@H](N)C(=O)O [L-2-Aminobutyric Acid, L-2-aminobutyric acid]

Ki ([1]; Figure 2B, C, E, F): 81 µM
Structure (SMILES): NC1(C(=O)O)CC2CCC1C2 (centres unmarked) [BCH, 2-aminobicyclo-(2,2,1)-heptane-2-carboxylic acid]

Ki ([1]; Figure 2D): 0.079 µM
Structure (SMILES): Nc1cc(COc2c(Cl)cc(C[C@H](N)C(=O)O)cc2Cl)c2oc(-c3ccccc3)nc2c1 [JPH203, (S)-2-amino-3-(4-((5-amino-2-phenylbenzo [d]oxazol-7-yl)-methoxy)-3,5-dichlorophenyl)-propanoic acid]

Structure (SMILES): NCC(=O)O [Gly]
Binding of [3H]L-Leucine (%), residual radioligand binding [1]: 44%

Binding of [3H]L-Leucine (%), residual radioligand binding (RRB) [1, 4]: 102%
binding / inhibition of [3H]L-leucine binding to 4F2hc-LAT1, in words [1]: no significant binding
Structure (SMILES): COC(=O)[C@@H](N)Cc1c[nH]cn1 [L-Histidine Methyl Ester, L-histidine-methyl ester]

Binding of [3H]L-Leucine (%), residual radioligand binding [1]: 29%
Binding of [3H]L-Leucine (%), residual radioligand binding ([1]; listed as L-phenylalanine): 19-29%
Structure (SMILES): N[C@@H](Cc1ccccc1)C(=O)O [Phe, L-phenylalanine]
